{"source": "patent US20250090545A1", "about": "“METHODS AND COMPOSITIONS FOR TREATMENT OF PERIPHERAL NEUROPATHIES” (UNIVERSITY OF MANITOBA, priority 2013, published 2025)", "molecules": {"B1": {"name": "MT7: 64-66 amino acid protein derived from the African green mamba snake; most specific antagonist of the M1 receptor (protein, UniProt Q8QGR0 22-86, looked up)", "Muscarinic toxin 7": "LTCVKSNSIWFPTSEDCPDGQNLCFKRWQYISPRMYDFTRGCAATCPKAEYRDVINCCGTDKCNK"}}, "key": {"[1]": {"system": "STZ-induced diabetic Swiss Webster mice", "assay": "Topical atropine (eye or paw) in STZ-induced diabetic Swiss Webster mice", "format": "in vivo, mouse", "details": "5 days/wk, 12 weeks", "experimental": "Groups of adult Swiss Webster mice were made diabetic with STZ and then treated 5 days/wk with atropine delivered topically to one eye (2% solution) or topically to one paw (2% gel) for 12 weeks. Measurements were made on both the treated and untreated hind paw. Indices of large motor fiber function (MNCV; FIG. 21) and sensory sensory fiber function (paw thermal latency; FIG. 22) were measured and compared to those of age-matched control mice that were treated in an equivalent manner. […] The data shown in FIGS. 21 and 22 are group means±SEM with N=6-10/group. Significant differences were determined by unpaired t-test to compare control and diabetic animals under each condition (vehicle, atropine to the eye, atropine to the foot)."}, "PGC-1α": {"system": "PGC-1α", "assay": "PGC-1α transcriptional activity, luciferase reporter in adult sensory neurons", "format": "cell-based, rat", "experimental": "PGC-1α transcriptional activity was determined in dissociated adult sensory neurons derived from STZ-induced diabetic rats by transfection for two days with luciferase-based reporter plasmids by following the methods taught in the AMAXA® NUCLEOFECTOR® II Manual (www.amaxa.com; AMAX and NUCLEOFECTOR are registered trademarks of Amaxa GmBH Corp., Koln, Fed. Rep. Germany) and by Saleh et al. (2013, Ciliary neurotrophic factor activates NF-κB to enhance mitochondrial bioenergetics and prevent neuropathy in sensory neurons of streptozotocin-induced diabetic rodents. Neuropharmacology 65:65-75) (the luciferase-based reporter plasmids were a gift from Dr. Michael Czubryt, University of Manitoba)."}, "[2]": {"system": "cultured adult rat sensory neurons", "assay": "Total neurite outgrowth in cultured adult sensory neurons", "format": "cell-based", "details": "for total neurite outgrowth: cultured adult sensory neurons from normal adult rodents", "source_text": "The fundamental hypothesis is that blocking endogenous cholinergic constraint using a muscarinic receptor antagonist will promote re-growth of neurons in patients with established peripheral neuropathy. This occurs via activation of AMPK and PGC-1α and the subsequent augmentation of mitochondrial function. This pathway comprises a proximal step involving M1 receptor antagonist-dependent activation of CaMKKβ (or CaMKK2). This hypothesis is supported by extensive preclinical data using in vitro and in vivo model systems. […] A specific requirement for M1 receptor antagonism is confirmed by the increased neurite outgrowth from sensory neurons derived from M1R KO mice.\nThe highly specific M1 receptor antagonist, MT7 (muscarinic toxin 7), enhanced neurite outgrowth in cultured adult rat sensory neurons (FIGS. 9(A), 9(B), 10). The data in FIG. 10 are means±SEM of 9 replicate cultures. Significant differences were determined by one-way ANOVA with Dunnett's post-hoc test."}, "db/db mice": {"system": "db/db mice", "assay": "Topical oxybutynin in db/db mouse model of type 2 diabetes", "format": "in vivo", "experimental": "The muscarinic receptor antagonist oxybutynin was tested for efficacy against a functional measure of sensory neuropathy in the db/db mouse model of type 2 diabetes (FIG. 15). Thermal latency was analyzed as taught by Calcutt et al. (2004, Prevention of sensory disorders in diabetic Sprague-Dawley rats by aldose reductase inhibition or treatment with ciliary neurotrophic factor. Diabetologia 47:718-24). […] Some diabetic mice were then treated with oxybutynin (Oxy: 2% in hydrogel) applied to the right paw for 20 min/day 5 days a week, while others were treated with hydrogel vehicle alone. […] Data are group mean±SEM of N=8-9/group.\nIENF levels were quantified as taught by Beiswenger et al. (2008, Epidermal nerve fiber quantification in the assessment of diabetic neuropathy. Acta Histochem. 110:351-63). The data shown in FIG. 16(A) are group mean±SEM of N=6-8/group. Significant differences were determined with a oneway ANOVA followed by Dunnett's post-hoc test. […] After 8 weeks of topical oxybutynin treatment, the eyes were assessed using corneal confocal microscopy as taught by Chen et al. (2013, Repeated monitoring of corneal nerves by confocal microscopy as an index of peripheral neuropathy in type-1 diabetic rodents and the effects of topical insulin. J. Periph. Nerv. Syst. 18;306-315)."}, "[3]": {"system": "STZ-induced diabetic Swiss Webster mice", "assay": "Systemic oxybutynin in STZ-induced diabetic Swiss Webster mice, thermal hypoalgesia", "format": "in vivo, mouse", "details": "9 weeks after 8 weeks of untreated diabetes"}, "[4]": {"system": "adult sensory neurons from normal rats", "assay": "Neurite outgrowth of sensory neurons exposed to paclitaxel or oxaliplatin", "format": "cell-based, rat", "details": "24 hours; paclitaxel 0.1 or 0.3 μM, oxaliplatin 3.0 μM", "experimental": "Adult sensory neurons from normal rats were cultured for 24 hours in the presence of(A) paclitaxel (PX; 0.1 μM or 0.3 μM), or (B) oxaliplatin (OX; 3.0 μM). From time of plating some cultures were treated with 0.1, 1.0 or 10 μM pirenzepine (PZ). Levels of total neurite outgrowth were determined and presented as means±SEM, N=6-8/group. Significant differences were assessed in(A) by t-test, and in(B) by one-way ANOVA with Dunnett's post-hoc test."}, "[5]": {"system": "AMP-activated protein kinase (AMPK)", "assay": "AMPK phosphorylation (Western blot) in cultured adult sensory neurons", "format": "cell-based, rat", "details": "neurons from age-matched control rats", "experimental": "Subsets of cultured adult sensory neurons derived from age-matched control rats or 3-5 month STZ-induced diabetic rats were treated with a 1.0 μM pirenzepine-HCl dosage. The first subset was processed immediately while the second, third and fourth subsets of the neurons from the control rats and the diabetic rats were processed after 15 min, after 30 min, and after 60 min respectively following treatment with pirenzepine. The cell cultures were lysed and then used to prepare Western blots which were then probed with antibodies against phosphorylated AMPK (P-AMPK), total AMPK (T-AMPK) and total ERK (T-ERK). […] Values are means±SEM, N=3/group. Statistical significance was analyzed using one-way ANOVA with Tukey's post-hoc test."}, "adult Swiss Webster mice": {"system": "adult Swiss Webster mice", "assay": "Corneal nerve occupancy by confocal microscopy in normal mice given MT7 eye drops", "format": "in vivo, mouse", "details": "daily eye drops; day 11 vs day 2, p<0.05", "experimental": "To further extend our investigation of the actions of muscarinic receptor antagonists on nerve growth, we treated normal mice with the M1 receptor-specific antagonist MT7 by daily delivery to the eyes for 11 days and used confocal microscopy to provide a non-invasive and therefore iterative assessment of corneal nerve density.\nA group (n=8) of adult Swiss Webster mice received daily treatment with MT7, which was given by eye drops (20 μl volume) in saline. Nerve occupancies in the sub-basal nerve plexus (SBNP 1-5) and upper stromal (Stroma 1-10) regions of the cornea were measured on day 2 and day 11 of treatment (FIG. 23). […] Data are group means (N=8)±SEM."}, "[6]": {"system": "cultured adult rat sensory neurons", "format": "cell-based", "details": "gp120 24 hours; not shown", "experimental": "To further extend our investigation of the actions of muscarinic receptor antagonists on nerve growth, cultured adult rat sensory neurons were treated for 24 hours with recombinant gp120, an external coat protein of HIV that causes toxicity to sensory neurons in HIV neuropathy (FIG. 24). This toxicity leads to axon degeneration and neuronal cell death. Cultures were treated with 1 μM pirenzpeine and total neurite outgrowth determined. […] Values are means±SEM. n=6."}, "M1 receptor": {"target": "T1, M1 receptor (Homo sapiens, UniProt P11229)", "T1 sequence (P11229 1-460)": "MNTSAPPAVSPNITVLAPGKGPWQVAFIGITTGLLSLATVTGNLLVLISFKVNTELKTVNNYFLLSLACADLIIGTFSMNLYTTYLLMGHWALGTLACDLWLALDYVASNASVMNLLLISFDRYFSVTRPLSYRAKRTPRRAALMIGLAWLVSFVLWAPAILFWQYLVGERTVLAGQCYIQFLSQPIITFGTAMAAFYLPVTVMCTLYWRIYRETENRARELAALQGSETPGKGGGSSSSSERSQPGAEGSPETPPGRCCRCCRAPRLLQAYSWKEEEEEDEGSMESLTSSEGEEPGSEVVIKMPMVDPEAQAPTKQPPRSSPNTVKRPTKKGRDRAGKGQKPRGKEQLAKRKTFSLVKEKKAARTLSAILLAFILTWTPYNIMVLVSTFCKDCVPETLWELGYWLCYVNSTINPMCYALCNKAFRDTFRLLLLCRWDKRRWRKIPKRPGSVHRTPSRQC", "details": "cited from earlier work"}, "[7]": {"details": "2% solution topically to one eye"}, "[8]": {"details": "topical, 8 weeks, values not significantly different from controls"}}, "note": "Entries after “also recorded” stand apart in the source; their conditions may differ.", "data": [{"molecule": "CN1[C@@H]2CC[C@H]1C[C@@H](OC(=O)C(CO)c1ccccc1)C2", "note": "(stereo partly drawn) [atropine]", "values": [{"measurement": "large fiber MNCV", "setting": "[1]; 2% gel topically to one paw", "result": "not different to controls"}, {"measurement": "paw thermal hypoalgesia (paw thermal latency)", "setting": "[1]; 2% gel topically to one paw", "result": "not different to controls"}, {"measurement": "large fiber MNCV", "setting": "[1]; [7]", "result": "not different to controls"}, {"measurement": "paw thermal hypoalgesia (paw thermal latency)", "setting": "[1]; [7]", "result": "not different to controls"}]}, {"molecule": "c1cc(-c2cnn3cc(-c4ccc(OCCN5CCCCC5)cc4)cnc23)ccn1", "note": "[Compound C]", "values": [{"measurement": "effect on MT7 stimulation of PGC-1α transcription", "setting": "PGC-1α; 0.3μM co-treatment with MT7", "result": "blocked"}]}, {"molecule": "CCN(CC)CC#CCOC(=O)C(O)(c1ccccc1)C1CCCCC1", "note": "(stereo not drawn) [oxybutynin, 4-dicthylaminobut-2-ynyl-2-cyclohexyl-2-hydroxy-2-phenyl-ethanoate]", "values": [{"measurement": "total neurite outgrowth", "setting": "[2]", "result": "elevated"}, {"measurement": "paw thermal hypoalgesia (thermal latency)", "setting": "db/db mice; 2% in hydrogel to right paw 20 min/day, 5 days a week, 8 weeks, p<0.01 vs vehicle", "result": "reversed"}, {"measurement": "time of treatment to reversal of thermal hypoalgesia", "setting": "db/db mice; topical oxybutynin", "result": "4-8 weeks"}, {"measurement": "reduction in density of IENF in paw skin", "setting": "db/db mice; [8]", "result": "attenuated"}, {"measurement": "reduction in nerve fiber occupancy in the cornea", "setting": "db/db mice; [8]", "result": "attenuated"}, {"measurement": "thermal hypoalgesia", "setting": "[3]; 3 mg/kg s.c.", "result": "able to reverse"}, {"measurement": "thermal hypoalgesia", "setting": "[3]; 10 mg/kg s.c.", "result": "able to reverse"}]}, {"molecule": "O=C1[O][Pt]2([NH][C@@H]3CCCC[C@H]3[NH]2)[O]C1=O", "note": "[oxaliplatin]", "values": [{"measurement": "neurite outgrowth of sensory neurons exposed in vitro to the chemotherapeutic", "setting": "[4]", "result": "reduced neurite outgrowth"}]}, {"molecule": "O=C(O)c1ccc2c3c1cccc3c(=O)n1c3ccccc3nc21", "note": "[STO-609]", "values": [{"measurement": "effect on MT7-induced enhancement of AMPK phosphorylation", "setting": "[5]; 1.0μM", "result": "inhibited"}, {"measurement": "effect on pirenzepine-induced enhancement of AMPK phosphorylation", "setting": "[5]; 1.0μM", "result": "inhibited"}, {"measurement": "effect on pirenzepine-induced neurite outgrowth", "setting": "[2]; cultured adult rat sensory neurons", "result": "dose-dependently inhibited"}]}, {"molecule": "B1", "values": [{"measurement": "AMPK phosphorylation", "setting": "[5]; MT7", "result": "enhancement"}, {"measurement": "transcription of PGC-1α", "setting": "PGC-1α; MT7 treatment, neurons from STZ-induced diabetic rats", "result": "activated"}, {"measurement": "total neurite outgrowth", "setting": "[2]", "result": "enhanced; also recorded: dose-dependently elevated"}, {"measurement": "nerve occupancy in the sub-basal nerve plexus (SBNP 1-5) of the cornea", "setting": "adult Swiss Webster mice", "result": "increased significantly"}, {"measurement": "nerve occupancy in the upper stromal (Stroma 1-10) region of the cornea", "setting": "adult Swiss Webster mice", "result": "increased significantly"}, {"measurement": "level of protection from gp120 treatment", "setting": "[6]", "result": "approximately 50%"}, {"measurement": "concentrations at which it binds to an allosteric site on the M1 receptor", "setting": "M1 receptor; allosteric site", "result": "low nanomolar"}, {"measurement": "selectivity for M1 receptors over M2-M5", "setting": "M1 receptor", "result": "10,000 fold"}]}]}
